Results on five compounds are retold here after US6090785A, “Substituted N-carboxyalkylpeptidyl derivatives as antidegenerative agents” (Merck & Co., Inc., priority 1992, dated 2000).

Holding throughout (format): biochemical
The target of assay [1] is stromelysin (Homo sapiens, UniProt P08254). The assay is described as follows: Stromelysin inhibition assay (HPLC/fluorometric determination of remaining peptide substrate). Conditions: SLN = stromelysin; substrate 5 μM, enzyme 1.5 nM. On the procedure: Briefly the assay may be carried out by incubating for four hours the inhibitor in dimethyl sulfoxide (DMSO) and 25 μl of 0.3726 μg/ml stromelysin, then adding 60 μl of 11.24 μM substrate and incubating the resulting mixture for 18 hours. The final concentrations of the substrate is 5 μM and of the enzyme 1.5 nM. At this time 50 μl of 0.3 M H3 PO4 is added and a portion of the mixture injected onto an HPLC column and the remaining substrate determined by fluorometric detection. The area of the substrate is quantitated and is plotted as a function of the inhibitor concentration. The Ki is calculated using the following equation: [formula] where area inhibited and ^area control are integrated HPLC areas for substrate for inhibited and uninhibited reactions, respectively; [I] is the inhibitor concentration; [S] is the substrate concentration.

Assay [2] deals with gelatinase. The assay is described as follows: Gelatinase inhibition assay with fluorogenic Dnp-peptide substrate (method of Stack et al). The following applies: Gel = gelatinase. The source says:
(§1) The capacity of representative compounds of formula I to inhibit collagenase and gelatinase lysis may be determined using the method of M. S. Stack et al, Biol. Chem 264, 4277 (1989). In such assay, a fluorogenic substrate Dnp-Pro-Leu-Gly-Leu-Trp-Ala-D-Arg.(SEQ ID NO:2) where the "Dnp" designation indicates a "dinitrophenyl" group and this group is indicated by "Xaa" in the Sequence Listing. is used. The tryptophan fluorescence is efficiently quenched by the dinitrophenyl group but when it is hydrolyzed by collagenase or gelatinase, there is increased fluorescence with cleavage occurring at the Gly-Leu bond.
(§2) Assays were performed in 0.05M Tris, 5 mM CaCl2, 0.2M NaCl up to 20% Me2 SO, pH 7.7 at either […] or 37° C. using peptide concentrations of 2.5 to 40 μM.
(§3) After addition of enzyme to initiate the reaction, the initial rate of substrate hydrolysis is determined by monitoring the increase in fluorescence emission at 346 nm. using an excitation wavelength of 280 nm. To determine the inhibitory activity the hydrolysis is measured fluorimetrically in the presence of increasing concentrations of the inhibitor and the Ki is determined.

Assay [3] concerns the target T1, collagenase (Homo sapiens, UniProt P03956).
T1 sequence (P03956 100-469): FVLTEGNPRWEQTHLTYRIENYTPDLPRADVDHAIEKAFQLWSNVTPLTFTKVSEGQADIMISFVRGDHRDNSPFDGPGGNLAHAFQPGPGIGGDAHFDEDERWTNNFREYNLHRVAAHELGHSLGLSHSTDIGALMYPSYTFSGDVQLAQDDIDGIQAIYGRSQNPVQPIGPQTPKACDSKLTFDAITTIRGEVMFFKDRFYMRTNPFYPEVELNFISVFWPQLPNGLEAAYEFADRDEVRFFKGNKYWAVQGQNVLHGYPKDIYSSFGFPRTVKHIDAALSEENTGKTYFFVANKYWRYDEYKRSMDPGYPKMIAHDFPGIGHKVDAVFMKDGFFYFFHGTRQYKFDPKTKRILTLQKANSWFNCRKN
The experiment in a line: Collagenase inhibition assay with fluorogenic Dnp-peptide substrate (method of Stack et al). Conditions: CGase = collagenase.
Excerpt: as §1, §2, §3

stromelysin, sequence (P08254 100-477): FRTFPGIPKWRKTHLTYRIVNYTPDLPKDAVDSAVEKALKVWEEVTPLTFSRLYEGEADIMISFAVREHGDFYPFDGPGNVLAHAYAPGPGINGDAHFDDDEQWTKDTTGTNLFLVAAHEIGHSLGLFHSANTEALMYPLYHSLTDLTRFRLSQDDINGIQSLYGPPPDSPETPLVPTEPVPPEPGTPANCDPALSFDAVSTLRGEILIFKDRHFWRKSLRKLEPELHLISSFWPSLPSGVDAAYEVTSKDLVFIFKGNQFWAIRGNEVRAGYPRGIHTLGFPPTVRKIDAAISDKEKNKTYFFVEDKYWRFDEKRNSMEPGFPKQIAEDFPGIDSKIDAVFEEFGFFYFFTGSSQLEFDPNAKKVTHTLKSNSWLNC

For the compound `C[C@@H](N[C@@H](CCCCCCCCCN)C(=O)N[C@@H](CCCNC(=N)N)C(=O)Nc1ccccc1)C(=O)O` [Compound 9d], the Ki – broadly, the dissociation constant of the complex between target and ligand, obtained from inhibition or displacement – is 0.37 µM in assay [1] and 0.11 µM in assay [2].

As for `CCCCCCCCCC[C@H](N[C@H](C)C(=O)O)C(=O)N[C@@H](CC(C)C)C(=O)Nc1ccccc1` [Compound 9e], the Ki in assay [1] was determined as 0.85 µM; in assay [2], 0.56 µM.

Regarding `CCCCCCCC[C@H](N[C@H](C)C(=O)O)C(=O)N[C@@H](CC(C)C)C(=O)Nc1ccccc1` [Compound 9b], the values for the Ki in assay [1], in assay [3] and in assay [2] were 0.57 µM, above 10 µM and 0.34 µM, respectively.

On to `CC(C)C[C@H](NC(=O)[C@H](CCCCCCCCCN)N[C@H](C)C(=O)O)C(=O)Nc1ccccc1` [Compound 9a], for which the results for the Ki in assay [1], in assay [3] and in assay [2] were 0.24 µM, above 10 µM and 0.5 µM, respectively.

Take `CCCCCCCC[C@H](N[C@H](C)C(=O)O)C(=O)N[C@@H](CCCNC(=N)N)C(=O)Nc1ccccc1` [Compound 9c]: the Ki in assay [1] was 1.6 µM; in assay [2], 0.12 µM.
